According to patent publication US10301280B2 (Plexxikon Inc., priority 2012, dated 2019):

Molecular target: c-kit kinase (Homo sapiens (Human), UniProt P10721)
Assay: c-Kit biochemical assay (AlphaScreen)
Settings: c-kit biochemical inhibitory activity
Experimental: Assays for biochemical cell-based activity of c-kit kinase are known in the art, for example, as described in U.S. Pat. Nos. 7,498,342 and 7,846,941, the disclosures of which are hereby incorporated by reference as it relates to such assays. The c-kit (or kinase domain thereof) is an active kinase in AlphaScreen. IC50 values are determined with respect to inhibition of c-Kit kinase activity, where inhibition of phosphorylation of a peptide substrate is measured as a function of compound concentration. Compounds to be tested were dissolved in DMSO to a concentration of 20 mM. These were diluted 30 μl into 120 μl of DMSO (4 mM) and 1 μl was added to an assay plate. These were then serially diluted 1:3 (50 μl to 100 μl DMSO) for a total of 8 points. Plates were prepared such that each kinase reaction is 20 μl in 1× kinase buffer (50 mM HEPES, pH 7.2, 5 mM MgCl2, 5 mM MnCl2, 0.01% NP-40, 0.2% BSA), 5% DMSO and 10 µM ATP. Substrate was 100 nM biotin-(E4Y)3 (Open Source Biotech, Inc.). C-kit kinase was at 0.1 ng per sample. After incubation of the kinase reaction for 1 hour at room temperature, 5 μl of donor beads (Streptavidin coated beads (Perkin Elmer Life Science) final concentration 1 μg/ml) in stop buffer (50 mM EDTA in 1× kinase buffer) was added, the sample was mixed and incubated for 20 minutes at room temperature before adding 5 μl of acceptor beads (PY20 coated beads (Perkin Elmer Life Science) final concentration 1 μg/ml) in stop buffer. The samples were incubated for 60 minutes at room temperature and the signal per well was read on AlphaQuest reader. Phosphorylated substrate results in binding of the PY20 antibody and association of the donor and acceptor beads such that signal correlates with kinase activity. The signal vs. compound concentration was used to determine the IC50.
Compounds were also tested using a similar assay with a 10-fold higher ATP concentration. For these samples, compounds to be tested were dissolved in DMSO to a concentration of 20 mM. These were diluted 30 μl into 120 μl of DMSO (4 mM) and 1 μl was added to an assay plate. These were then serially diluted 1:3 (50 μl to 100 μl DMSO) for a total of 8 points. Plates were prepared such that each kinase reaction is 20 μl in 1× kinase buffer (25 mM HEPES, pH 7.5, 2 mM MgCl2, 2 mM MnCl2, 0.01% Tween-20, 1 mM DTT, and 0.001% BSA), 5% DMSO and 100 µM ATP. Substrate was 30 nM biotin-(E4Y)10 (Upstate Biotech, Cat#12-440). C-kit kinase was at 1 ng per sample. After incubation of the kinase reaction for 1 hour at room temperature, 5 μl of donor beads (Streptavidin coated beads (Perkin Elmer Life Science) final concentration 10 μg/ml) in stop buffer (25 mM HEPES pH 7.5, 100 mM EDTA, 0.3% BSA) was added, the sample was mixed and incubated for 20 minutes at room temperature before adding 5 μl of acceptor beads (PY20 coated beads (Perkin Elmer Life Science) final concentration 10 μg/ml) in stop buffer. The samples were incubated for 60 minutes at room temperature and the signal per well was read on AlphaQuest or Envision reader (Perkin Elmer Life Science). Phosphorylated substrate results in binding of the PY20 antibody and association of the donor and acceptor beads such that signal correlates with kinase activity. The signal vs. compound concentration was used to determine the IC50.
The c-kit enzyme used in the above assay was either obtained from Cell Signaling Technology (Cat. #7754) or was prepared as follows: A plasmid encoding kit (DNA and encoded protein sequences shown below) was engineered using common polymerase chain reaction (PCR) methods. Complementary DNA cloned from various human tissues were purchased from Invitrogen, and these were used as substrates in the PCR reactions. Specific custom synthetic oligonucleotide primers were designed to initiate the PCR product, and also to provide the appropriate restriction enzyme cleavage sites for ligation with the plasmids. […]

Chain of c-kit kinase (P10721 26-976): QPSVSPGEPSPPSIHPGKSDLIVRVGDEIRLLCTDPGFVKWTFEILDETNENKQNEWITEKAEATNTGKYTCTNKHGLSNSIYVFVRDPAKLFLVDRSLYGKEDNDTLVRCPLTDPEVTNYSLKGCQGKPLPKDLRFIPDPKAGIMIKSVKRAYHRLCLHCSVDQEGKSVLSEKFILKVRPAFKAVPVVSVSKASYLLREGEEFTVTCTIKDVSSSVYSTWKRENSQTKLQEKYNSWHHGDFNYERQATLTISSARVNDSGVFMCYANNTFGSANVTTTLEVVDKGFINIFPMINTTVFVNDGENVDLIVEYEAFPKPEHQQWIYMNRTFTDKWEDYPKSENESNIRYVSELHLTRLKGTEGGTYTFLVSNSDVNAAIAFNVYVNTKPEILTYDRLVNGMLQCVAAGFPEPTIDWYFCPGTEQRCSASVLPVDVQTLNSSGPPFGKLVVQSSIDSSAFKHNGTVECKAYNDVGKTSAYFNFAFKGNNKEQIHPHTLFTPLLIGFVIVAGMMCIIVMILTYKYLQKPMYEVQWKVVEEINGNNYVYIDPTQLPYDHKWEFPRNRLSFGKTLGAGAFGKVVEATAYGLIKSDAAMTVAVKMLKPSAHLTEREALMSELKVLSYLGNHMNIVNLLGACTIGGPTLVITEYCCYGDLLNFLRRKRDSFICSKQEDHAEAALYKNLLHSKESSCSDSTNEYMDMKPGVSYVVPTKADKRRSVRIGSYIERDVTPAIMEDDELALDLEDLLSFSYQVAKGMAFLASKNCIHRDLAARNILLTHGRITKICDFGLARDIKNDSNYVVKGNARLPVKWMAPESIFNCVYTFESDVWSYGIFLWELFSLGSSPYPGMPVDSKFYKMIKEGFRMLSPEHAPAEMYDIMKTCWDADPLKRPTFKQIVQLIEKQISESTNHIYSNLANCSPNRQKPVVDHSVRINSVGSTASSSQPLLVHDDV

Cc1nn(C2COC2)cc1-c1cc2cc(NC(=O)c3[nH]nc(C)c3C)cnc2[nH]1 [P-2168, 3,4-dimethyl-N-[2-[3-methyl-1-(oxetan-3-yl)pyrazol-4-yl]-1H-pyrrolo[2,3-b]pyridin-5-yl]-1H-pyrazole-5-carboxamide] was tested, and the IC50 was 0.0001 to 1 µM.
Cc1n[nH]c(C(=O)Nc2cnc3[nH]c(-c4ccccc4OC(F)(F)F)cc3c2)c1C [P-2182, 3,4-dimethyl-N-[2-[2-(trifluoromethoxy)phenyl]-1H-pyrrolo[2,3-b]pyridin-5-yl]-1H-pyrazole-5-carboxamide] gave an IC50 of 1 to 10 µM.
Compound Cc1n[nH]c(C(=O)Nc2cnc3[nH]c(-c4c(C)nn(C)c4C)cc3c2)c1C [P-2165, 3,4-dimethyl-N-[2-(1,3,5-trimethylpyrazol-4-yl)-1H-pyrrolo[2,3-b]pyridin-5-yl]-1H-pyrazole-5-carboxamide] has an IC50 of 0.0001 to 1 µM.
Work on Cc1n[nH]c(C(=O)Nc2cnc3[nH]c(-c4ccnc(C(C)C)c4)cc3c2)c1C [P-2163, N-[2-(2-isopropyl-4-pyridyl)-1H-pyrrolo[2,3-b]pyridin-5-yl]-3,4-dimethyl-1H-pyrazole-5-carboxamide] yielded an IC50 of 0.0001 to 1 µM.
Compound Cc1ccc(-c2cc3cc(NC(=O)c4[nH]nc(C)c4C)cnc3[nH]2)c(C)c1 [P-2181, N-[2-(2,4-dimethylphenyl)-1H-pyrrolo[2,3-b]pyridin-5-yl]-3,4-dimethyl-1H-pyrazole-5-carboxamide] has an IC50 of 10 to 200 µM.
In the case of Cc1[nH]nc(C(=O)Nc2cnc3[nH]c(C4=CCN(C(=O)C5CC5)CC4)cc3c2)c1Cl [P-2039, 4-chloro-N-[2-[1-(cyclopropanecarbonyl)-3,6-dihydro-2H-pyridin-4-yl]-1H-pyrrolo[2,3-b]pyridin-5-yl]-5-methyl-1H-pyrazole-3-carboxamide], the IC50 is reported as 0.0001 to 1 µM.
Cc1n[nH]c(C(=O)Nc2cnc3[nH]c(C4=CCN(C(=O)N5CCOCC5)CC4)cc3c2)c1C [P-2034, 3,4-dimethyl-N-[2-[1-(morpholine-4-carbonyl)-3,6-dihydro-2H-pyridin-4-yl]-1H-pyrrolo[2,3-b]pyridin-5-yl]-1H-pyrazole-5-carboxamide] gave an IC50 of 0.0001 to 1 µM.
Cc1n[nH]c(C(=O)Nc2cnc3[nH]c(-c4cccnc4C(F)(F)F)cc3c2)c1C [P-2176, 3,4-dimethyl-N-[2-[2-(trifluoromethyl)-3-pyridyl]-1H-pyrrolo[2,3-b]pyridin-5-yl]-1H-pyrazole-5-carboxamide] was tested, and the IC50 was 10 to 200 µM.
CCc1cc(-c2cc3cc(NC(=O)c4[nH]nc(C)c4C)cnc3[nH]2)ccn1 [P-2177, N-[2-(2-ethyl-4-pyridyl)-1H-pyrrolo[2,3-b]pyridin-5-yl]-3,4-dimethyl-1H-pyrazole-5-carboxamide] showed an IC50 of 0.0001 to 1 µM.
Compound COc1ccc(-c2cc3cc(NC(=O)c4[nH]nc(C)c4C)cnc3[nH]2)c(C)c1C [P-2284, N-[2-(4-methoxy-2,3-dimethyl-phenyl)-1H-pyrrolo[2,3-b]pyridin-5-yl]-3,4-dimethyl-1H-pyrazole-5-carboxamide] has an IC50 of 1 to 10 µM.
Compound Cc1n[nH]c(C(=O)Nc2cnc3[nH]c(-c4ccc(F)cc4)cc3c2)c1C [P-2024, N-[2-(4-fluorophenyl)-1H-pyrrolo[2,3-b]pyridin-5-yl]-3,4-dimethyl-1H-pyrazole-5-carboxamide] has an IC50 of 10 to 200 µM.
Compound Cc1[nH]nc(C(=O)Nc2cnc3[nH]c(C4=CCN(C(=O)C5CC5)CC4)cc3c2)c1C [P-2043, N-[2-[1-(cyclopropanecarbonyl)-3,6-dihydro-2H-pyridin-4-yl]-1H-pyrrolo[2,3-b]pyridin-5-yl]-4,5-dimethyl-1H-pyrazole-3-carboxamide] has an IC50 of 0.0001 to 1 µM.
Work on O=C(Nc1cnc2[nH]c(-c3ccc(F)cc3)cc2c1)c1cccc2n[nH]cc12 [P-2027, N-[2-(4-fluorophenyl)-1H-pyrrolo[2,3-b]pyridin-5-yl]-2H-indazole-4-carboxamide] yielded an IC50 of 0.0001 to 1 µM.
Cc1c[nH]nc1C(=O)Nc1cnc2[nH]c(-c3ccc(F)cc3)cc2c1 [P-2029, N-[2-(4-fluorophenyl)-1H-pyrrolo[2,3-b]pyridin-5-yl]-4-methyl-1H-pyrazole-3-carboxamide] was tested, and the IC50 was 0.0001 to 1 µM.
For CCn1nccc1S(=O)(=O)Nc1cnc2[nH]c(-c3ccc(F)cc3)cc2c1 [P-2030, 2-ethyl-N-[2-(4-fluorophenyl)-1H-pyrrolo[2,3-b]pyridin-5-yl]pyrazole-3-sulfonamide], the IC50 was 1 to 10 µM.
Cc1n[nH]c(C(=O)Nc2cnc3[nH]c(-c4cccc5c4OCC5)cc3c2)c1C [P-2273, N-[2-(2,3-dihydrobenzofuran-7-yl)-1H-pyrrolo[2,3-b]pyridin-5-yl]-3,4-dimethyl-H-pyrazole-5-carboxamide] showed an IC50 of 10 to 200 µM.
With Cc1n[nH]c(C(=O)Nc2cnc3[nH]c(C4=CCN(C(=O)N5CCOCC5)CC4)cc3c2)c1Cl [P-2036, 4-chloro-3-methyl-N-[2-[1-(morpholine-4-carbonyl)-3,6-dihydro-2H-pyridin-4-yl]-1H-pyrrolo[2,3-b]pyridin-5-yl]-1H-pyrazole-5-carboxamide] the IC50 was 0.0001 to 1 µM.
Cc1n[nH]c(C(=O)Nc2cnc3[nH]c(-c4cnn(C5CCNCC5)c4)cc3c2)c1C [P-2048, 3,4-dimethyl-N-[2-[1-(4-piperidyl)pyrazol-4-yl]-1H-pyrrolo[2,3-b]pyridin-5-yl]-1H-pyrazole-5-carboxamide] showed an IC50 of 0.0001 to 1 µM.
Cc1n[nH]c(C(=O)Nc2cnc3[nH]c(-c4cnccc4C(N)=O)cc3c2)c1C [P-2272, 3-[5-[(3,4-dimethyl-1H-pyrazole-5-carbonyl)amino]-1H-pyrrolo[2,3-b]pyridin-2-yl]pyridine-4-carboxamide] gave an IC50 of 10 to 200 µM.
Cc1n[nH]c(C(=O)Nc2cnc3[nH]c(-c4ccc(F)cc4)cc3c2)c1Cl [P-2023, 4-chloro-N-[2-(4-fluorophenyl)-1H-pyrrolo[2,3-b]pyridin-5-yl]-3-methyl-1H-pyrazole-5-carboxamide] gave an IC50 of 1 to 10 µM.
CC(=O)Nc1cccc(C(=O)Nc2cnc3[nH]c(-c4ccc(F)cc4)cc3c2)c1 [P-2026, 3-acetamido-N-[2-(4-fluorophenyl)-1H-pyrrolo[2,3-b]pyridin-5-yl]benzamide] was tested, and the IC50 was 0.0001 to 1 µM.
In the case of Cc1n[nH]c(C(=O)Nc2cnc(Nc3ccccc3)nc2)c1C [P-2044, N-(2-anilinopyrimidin-5-yl)-3,4-dimethyl-1H-pyrazole-5-carboxamide], the IC50 is reported as 10 to 200 µM.
For Cc1n[nH]c(C(=O)Nc2cnc3[nH]c(-c4ccc(F)nc4F)cc3c2)c1C [P-2280, N-[2-(2,6-difluoro-3-pyridyl)-1H-pyrrolo[2,3-b]pyridin-5-yl]-3,4-dimethyl-1H-pyrazole-5-carboxamide], the IC50 was 10 to 200 µM.
Work on Cc1cc(C(=O)Nc2cnc3[nH]c(-c4ccc(F)cc4)cc3c2)[nH]n1 [P-2019, N-[2-(4-fluorophenyl)-1H-pyrrolo[2,3-b]pyridin-5-yl]-3-methyl-1H-pyrazole-5-carboxamide] yielded an IC50 of 10 to 200 µM.
Compound Cc1n[nH]c(C(=O)Nc2cnc3[nH]c(-c4cccc(N5CCNCC5)c4)cc3c2)c1C [P-2274, 3,4-dimethyl-N-[2-(3-piperazin-1-ylphenyl)-1H-pyrrolo[2,3-b]pyridin-5-yl]-1H-pyrazole-5-carboxamide] has an IC50 of 0.0001 to 1 µM.
In the case of Cc1n[nH]c(C(=O)Nc2cnc3[nH]c(-c4cccc(C(=O)O)c4C)cc3c2)c1C [P-2297, 3-[5-[(3,4-dimethyl-1H-pyrazole-5-carbonyl)amino]-1H-pyrrolo[2,3-b]pyridin-2-yl]-2-methyl-benzoic acid], the IC50 is reported as 0.0001 to 1 µM.
With Cc1n[nH]c(C(=O)Nc2cnc3[nH]ccc3c2)c1C [P-2032, 3,4-dimethyl-N-(1H-pyrrolo[2,3-b]pyridin-5-yl)-1H-pyrazole-5-carboxamide] the IC50 was 10 to 200 µM.
